# Experimental data published in BindingDB's records for doi:10.1021/jm00018a020 (Centre De Recherche Pierre Fabre, 1995).
# Molecular target: 5-hydroxytryptamine receptor 1B (Homo sapiens) (UniProt P28222)
# Experiment: Binding affinity for cloned human 5-hydroxytryptamine 1D receptor beta
# Chain of 5-hydroxytryptamine receptor 1B (Homo sapiens) (P28222 whole entry, looked up): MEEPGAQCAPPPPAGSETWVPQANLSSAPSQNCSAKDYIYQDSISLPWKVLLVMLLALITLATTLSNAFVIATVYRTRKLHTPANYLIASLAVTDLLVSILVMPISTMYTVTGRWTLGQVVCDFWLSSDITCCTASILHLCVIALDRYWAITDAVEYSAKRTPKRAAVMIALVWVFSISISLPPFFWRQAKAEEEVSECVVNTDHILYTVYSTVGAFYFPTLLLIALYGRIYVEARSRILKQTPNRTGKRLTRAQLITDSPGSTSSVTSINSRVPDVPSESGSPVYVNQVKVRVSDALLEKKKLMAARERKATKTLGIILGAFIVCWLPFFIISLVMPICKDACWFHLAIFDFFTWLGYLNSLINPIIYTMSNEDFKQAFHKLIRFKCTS
row,SMILES,Ki [nM]
1,CN(C)S(=O)(=O)Nc1ccc(N2CCN(C(=O)COc3ccc4[nH]cc(CCN)c4c3)CC2)cc1,1.9
2,N#Cc1ccccc1N1CCN(C(=O)COc2ccc3[nH]cc(CCN)c3c2)CC1 [2-(4-{2-[3-(2-Amino-ethyl)-1H-indol-5-yloxy]-acetyl}-piperazin-1-yl)-benzonitrile],0.39
3,NCCc1c[nH]c2ccc(OCC(=O)N3CCN(c4ccccc4)CC3)cc12 [2-[3-(2-Amino-ethyl)-1H-indol-5-yloxy]-1-(4-phenyl-piperazin-1-yl)-ethanone],0.4
4,NCCc1c[nH]c2ccc(OCC(=O)N3CCN(c4ccccc4CN)CC3)cc12 [2-[3-(2-Amino-ethyl)-1H-indol-5-yloxy]-1-[4-(2-aminomethyl-phenyl)-piperazin-1-yl]-ethanone],1.8
5,NCCc1c[nH]c2ccc(OCC(=O)N3CCN(c4ccccc4[N+](=O)[O-])CC3)cc12 [2-[3-(2-Amino-ethyl)-1H-indol-5-yloxy]-1-[4-(2-nitro-phenyl)-piperazin-1-yl]-ethanone],0.3
6,NCCc1c[nH]c2ccc(OCC(=O)N3CCN(c4ccc(N)cc4)CC3)cc12 [2-[3-(2-Amino-ethyl)-1H-indol-5-yloxy]-1-[4-(4-amino-phenyl)-piperazin-1-yl]-ethanone],1.6
7,NCCc1c[nH]c2ccc(OCC(=O)N3CCN(c4ccc(CN)cc4)CC3)cc12 [2-[3-(2-Amino-ethyl)-1H-indol-5-yloxy]-1-[4-(4-aminomethyl-phenyl)-piperazin-1-yl]-ethanone],2.5
8,NCCc1c[nH]c2ccc(OCC(=O)N3CCN(c4ccc([N+](=O)[O-])cc4)CC3)cc12 [2-[3-(2-Amino-ethyl)-1H-indol-5-yloxy]-1-[4-(4-nitro-phenyl)-piperazin-1-yl]-ethanone],0.83
9,NCCc1c[nH]c2ccc(OCCCC(=O)N3CCN(c4ccc([N+](=O)[O-])cc4)CC3)cc12 [4-[3-(2-Amino-ethyl)-1H-indol-5-yloxy]-1-[4-(4-nitro-phenyl)-piperazin-1-yl]-butan-1-one],5
10,NCCc1c[nH]c2ccc(OCCCCC(=O)N3CCN(c4ccc([N+](=O)[O-])cc4)CC3)cc12 [5-[3-(2-Amino-ethyl)-1H-indol-5-yloxy]-1-[4-(4-nitro-phenyl)-piperazin-1-yl]-pentan-1-one],1.8
11,NCCc1c[nH]c2ccc(OCCCCCC(=O)N3CCN(c4ccc(N)cc4)CC3)cc12 [6-[3-(2-Amino-ethyl)-1H-indol-5-yloxy]-1-[4-(4-amino-phenyl)-piperazin-1-yl]-hexan-1-one],0.31
12,NCCc1c[nH]c2ccc(OCCCCCC(=O)N3CCN(c4ccc([N+](=O)[O-])cc4)CC3)cc12 [6-[3-(2-Amino-ethyl)-1H-indol-5-yloxy]-1-[4-(4-nitro-phenyl)-piperazin-1-yl]-hexan-1-one],0.47
13,CN(C)CCc1c[nH]c2ccc(C[C@H]3COC(=O)N3)cc12 [(S)-4-((3-(2-(dimethylamino)ethyl)-1H-indol-5-yl)methyl)oxazolidin-2-one],4
14,CS(=O)(=O)NCc1ccccc1N1CCN(C(=O)COc2ccc3[nH]cc(CCN)c3c2)CC1 [N-[2-(4-{2-[3-(2-Amino-ethyl)-1H-indol-5-yloxy]-acetyl}-piperazin-1-yl)-benzyl]-methanesulfonamide],0.53
15,CS(=O)(=O)NCc1ccc(N2CCN(C(=O)COc3ccc4[nH]cc(CCN)c4c3)CC2)cc1 [N-[4-(4-{2-[3-(2-Amino-ethyl)-1H-indol-5-yloxy]-acetyl}-piperazin-1-yl)-benzyl]-methanesulfonamide],2.2
16,NCCc1c[nH]c2ccc(OCC(=O)N3CCN(c4ccc(NC(=O)c5ccccc5)cc4)CC3)cc12 [N-[4-(4-{2-[3-(2-Amino-ethyl)-1H-indol-5-yloxy]-acetyl}-piperazin-1-yl)-phenyl]-benzamide],1.3
17,CS(=O)(=O)Nc1ccc(N2CCN(C(=O)COc3ccc4[nH]cc(CCN)c4c3)CC2)cc1 [N-[4-(4-{2-[3-(2-Amino-ethyl)-1H-indol-5-yloxy]-acetyl}-piperazin-1-yl)-phenyl]-methanesulfonamide],2.7
18,CS(=O)(=O)Nc1ccc(N2CCN(C(=O)CCCCCOc3ccc4[nH]cc(CCN)c4c3)CC2)cc1 [N-[4-(4-{6-[3-(2-Amino-ethyl)-1H-indol-5-yloxy]-hexanoyl}-piperazin-1-yl)-phenyl]-methanesulfonamide],1.4
